Source: patent EP1506960B1, “Indole compounds as inhibitors of tubulin polymerisation for the treatment of angiogenesis-related disorders” (National Health Research Institutes, priority 2003, dated 2005)
Read-outs that look alike come from different tables or passages of the source.

How the values were obtained:
KB = test: Cell growth inhibition assay (cytotoxicity), KB cell line; details: Homo sapiens, 72 h, read-out: Cytotoxicity KB
Description: (§1) Cell Growth Inhibition Assay: MCF-7 breast carcinoma cells were maintained in plastic dishes in DMEM medium supplemented with 10% fetal bovine serum. For in vitro treatment, tumor cells were seeded in […] of culture medium/well in 96-well plates to a final cell density of 6 x 10^3 cell/mL and incubated in a CO2 incubator at 37 °C for 24 h. The cells were treated with at least five different concentrations of a test indole compound, and incubated in a CO2 incubator at 37 °C for 72 h. The number of viable cells was estimated using MTS assay and absorbance was measured at 490 nm. Cytotoxicity of the test compounds was expressed in terms of IC50 values. The values presented represent averages of three independent experiments, each with duplicate samples.
(§2) Indole compounds were tested against several panels of drug-resistant cell lines. It is well known that several anti-mitotic agents, including vinca alkaloid (vincristine, vinblastine) and taxol, have been introduced in clinic to treat various human cancers. […] The mechanisms responsible for taxol resistance include overexpression of p-glycoprotein and mutation of tubulin.
(§3) The mechanisms responsible for VP16-resistance (KB7D) were down-regulation of topoisomerase II and overexpression of MRP 1.

KB-Vin10 = test: cells; details: read-out: Cytotoxicity KB -Vin10
Description: as §1, §2, §3

KB7D = test: cells; details: Homo sapiens, 72 h, read-out: Cytotoxicity KB7D
Description: as §1, §2, §3

KB100 = test: Cell growth inhibition assay on drug-resistant line KB100; details: Homo sapiens, 72 h, read-out: Cytotoxicity KB100
Description: as §1, §2, §3

HONECis-6 = test: Cell growth inhibition assay on drug-resistant line HONECis-6; details: read-out: Cytotoxicity HONECis -6, 72 h
Description: as §1, §2, §3

KB100R = test: Cell growth inhibition assay on line KB100R; details: Homo sapiens, 72 h, read-out: Cytotoxicity KB100R
Description: as §1, §2, §3

KB7DR = test: Cell growth inhibition assay on line KB7DR; details: Homo sapiens, 72 h, read-out: Cytotoxicity KB7DR
Description: as §1, §2, §3

KBtaxol-5 = test: Cell growth inhibition assay on drug-resistant line KBtaxol-5; details: Homo sapiens, 72 h, read-out: Cytotoxicity KBtaxol -5
Description: as §1, §2, §3

A549 lung cell line = test: Cell growth inhibition assay (cytotoxicity), A549; type: cell-based; details: Homo sapiens, Table 2, MTS, 72 h
Description: (§4) In addition, indole compounds described in the "Summary" section were also tested on the A549 lung cell line, MESSA uterine cell line, MKN45 stomach cell line, SW480 colon cell line, NUGC3 stomach cell line, and MESSA/DX5 uterine cell line.

MESSA uterine cell line = test: Cell growth inhibition assay (cytotoxicity), MESSA; type: cell-based; details: Homo sapiens, MES-SA, Table 2, MTS, 72 h
Description: as §4

MKN45 stomach cell line = test: Cell growth inhibition assay (cytotoxicity), MKN45; type: cell-based; details: Homo sapiens, MKN-45, Table 2, MTS, 72 h
Description: as §4

SW480 colon cell line = test: Cell growth inhibition assay (cytotoxicity), SW480; type: cell-based; details: Homo sapiens, Table 2, MTS, 72 h
Description: as §4

NUGC = test: Cell growth inhibition assay (cytotoxicity), NUGC; type: cell-based; details: Homo sapiens, Table 2, Stomach, MTS, 72 h
Description: as §4

[1] = test system: MCF-7 breast carcinoma cells; test: Cell growth inhibition assay (cytotoxicity), MCF7; type: cell-based; details: Homo sapiens, Table 2, MTS, 72 h
Description: In one assay, an indole compound is tested for its cytotoxicity on MCF-7 cells (a breast carcinoma cell line). More specifically, cells are incubated with a test compound for 24 hr. The cytotoxic effect can be determined using the MTS (3-(4,5-dimethylthiazol-2-yl)-5-(3-carboxymethoxyphenyl)-2-(4-sulfophenyl)-2H-tetrazolium, inner salt) assay method described in Goodwin et al. (1995, J. Immunol. Methods. 179: 95-103). Cytotoxicity of the test compound is expressed in terms of IC50 values (i.e., the concentration of the test compound which achieves a half-maximal inhibition of cell growth).

[2] = test system: MESSA/DX5 uterine cell line; test: Cell growth inhibition assay (cytotoxicity), MESSA/DX5; type: cell-based; details: Homo sapiens, MES-SA/Dx5, Table 2, MTS, 72 h
Description: as §4

Human MKN45 cancer cells = test: Tumor regression model, MKN45 xenograft; type: in vivo, Male CD 1 nude mice
Description: (§5) Tumor Regression Models: The procedures of cancer cell implantation were similar to those previously reported in Chen et al., Cancer Res., (1998) 58:2777-2783, with modifications. Male CD 1 nude mice (5~6 weeks old) were purchased from Charles River Laboratories (Wilmington, MA, USA). Human MKN45 and KB cancer cells were maintained in RPMI 1640 plus 10% fetal bovine serum. Each animal was subcutaneously implanted with 5×10^5 MKN45 or 1×10^6 KB cells in 0.1 ml at one flank. Tumor growth was examined three times a week after implantation. The volume of tumor was measured with a caliper and calculated as 1/2×length×width^2 in mm^3. Test compounds were dissolved completely in a vehicle mixture of dimethyl sulfoxide:cremophor:saline (1:4:15). When the size of a growing tumor reached approximately 100 mm^3, the mice were treated with test compounds intravenously from tail veins at a concentration of 50 mg/kg daily for two weeks. Mice in a control group were treated with the solvent vehicle only. Tumor sizes and body weights were measured twice a week and after the mice were sacrificed.

Human KB cancer cells = test: Tumor regression model, KB xenograft; type: in vivo, Male CD 1 nude mice; details: Compound 1 and cisplatin together vs cisplatin alone
Description: as §5

HONE-1 = test: Cell growth inhibition assay (cytotoxicity), HONE-1 cell line; details: Homo sapiens, HONE1, 72 h

| Structure (SMILES) | IC50 (KB) [nM] | IC50 (KB-Vin10; Homo sapiens, KB-VIN10, 72 h) [nM] | IC50 (KB7D) [nM] | IC50 (KB100) [nM] | IC50 (HONECis-6; Homo sapiens) [nM] | IC50 (KB7DR) [nM] | IC50 (KBtaxol-5) [nM] | IC50 (HONE-1; read-out: Cytotoxicity HONE -1) [nM] | other results |
| --- | --- | --- | --- | --- | --- | --- | --- | --- | --- |
| CC[C@@]1(O)C(=O)OCc2c1cc1n(c2=O)Cc2cc3ccccc3nc2-1 [CPT, camptothecin] | 26 | 400 | 133 | 1290 | – | – | – | – | – |
| N.N.[Cl][Pt][Cl] [Cisplatin, reference compound] | – | – | – | – | – | – | – | – | IC50 (KB-Vin10; Table 1, Vin. Res, MTS, 72 h): 5 nM; IC50 (HONECis-6; Table 1, Cis Res., MTS): 15000 nM |
| COc1ccc2c(C(=O)c3cc(OC)c(OC)c(OC)c3)c[nH]c2c1 [Compound 1, (6-methoxy-1H-indol-3-yl)-(3,4,5-trimethoxy-phenyl)-methanone] | 6 | 7 | 4 | 8 | 4.5 | 6 | 7 | 4 | IC50 (KB100R): 12 nM; IC50 (A549 lung cell line): 17 nM; IC50 (MESSA uterine cell line): 7 nM; IC50 (MKN45 stomach cell line): 4 nM; IC50 (SW480 colon cell line): 3 nM; IC50 (NUGC): 3 nM; IC50 [1]: 7.6 nM; IC50 [2]: 3.8 nM; activity in inhibiting tumor growth, administered together with cisplatin (Human MKN45 cancer cells; Compound 1 and cisplatin together vs cisplatin alone): higher activity in inhibiting tumor growth than cisplatin administered alone; activity in inhibiting tumor growth (Human MKN45 cancer cells; intravenously 50 mg/kg daily for two weeks, compared with cisplatin): higher activity in inhibiting tumor growth than cisplatin; activity in inhibiting tumor growth, administered together with cisplatin (Human KB cancer cells): higher activity in inhibiting tumor growth than cisplatin administered alone; IC50 (HONE-1; read-out: Cytotoxicity HONE-1): 4 nM |
| COc1ccc2c(C(=O)c3cc(OC)c(OC)c(OC)c3)cn(C(=O)OC(C)(C)C)c2c1 [Compound 6, 6-methoxy-3-(3,4,5-trimethoxy-benzoyl)-indole-1-carboxylic acid tert-butyl ester] | 13 | 9.6 | 8 | 18 | 19 | 15 | 37 | 19 | IC50 (KB100R): 18 nM |
| CC(=O)O[C@H]1C(=O)[C@@]2(C)[C@H]([C@H](OC(=O)c3ccccc3)[C@]3(O)C[C@H](OC(=O)[C@H](O)[C@@H](NC(=O)c4ccccc4)c4ccccc4)C(C)=C1C3(C)C)[C@]1(OC(C)=O)CO[C@@H]1C[C@@H]2O [Taxol, paclitaxel, reference compound] | 10 | – | – | – | – | – | 80 | – | – |
| COc1cc([C@@H]2c3cc4c(cc3[C@@H](O[C@@H]3O[C@@H]5CO[C@@H](C)O[C@H]5[C@H](O)[C@H]3O)[C@H]3COC(=O)[C@H]23)OCO4)cc(OC)c1O [VP-16] | 500 | – | 44000 | – | – | 3500 | – | – | – |
| CC[C@]1(O)C[C@H]2CN(CCc3c([nH]c4ccccc34)[C@@](C(=O)OC)(c3cc4c(cc3OC)N(C=O)[C@H]3[C@@](O)(C(=O)OC)[C@H](OC(C)=O)[C@]5(CC)C=CCN6CC[C@]43[C@@H]65)C2)C1 [Vincristine, reference compound] | 1 | 43 | 1920 | – | 0.6 | 337 | – | 0.5 | – |
